Laboratory results taken from patent US5026704A, “Benzo[f]quinoxaline-2,3(1H,4H)-diones” (Novo Nordisk A/S, priority 1987, dated 1991).
In brackets after ≈: the same amount, converted by molar mass.

Key:
[1] = target: quisqualate type receptors; assay: ^3 H-AMPA binding: displacement of ^3 H-AMPA from quisqualate type receptors in cerebral cortical membrane homogenate; set-up: species or system rat; details: displacement of 50% of specific ^3 H-AMPA binding; 5 nM ^3 H-AMPA, 0° C., 30 min, pH 7.1
Method: The pharmacological properties of the compounds of the present invention can be illustrated by determining their capability for displacing radioactively labelled 2-amino-3-hydroxy-5-methyl-4-isoxazolepropionic acid (AMPA) from the quisqualate type receptors.
The displacement activity of the compounds may be shown by determining the IC50 value which represents the concentration (μg/ml) which causes a displacement of 50% of the specific binding of ^3 H-AMPA.
500 μl of thawed rat cerebral cortical membrane homogenate in Tris-HCl (30 mM), CaCl2 (2.5 mM) and KSCN (100 mM) pH 7.1 were incubated at 0° C. for 30 min. with 25 μl ^3 H-AMPA (5 nM final concentration) and the test compound and buffer. Nonspecific binding was determined by incubation with L-glutamic acid (600 μM final concentration). The binding reaction was terminated by adding 5 ml of ice-cold buffer followed by filtration through Whatman GF/C glass fibre filters and 2×5 ml wash with ice-cold buffer. Bound radioactivity was measured by scintillation counting. IC50 was determined by Hill analysis of at least four concentrations of test compound.

[2] = system: quisqualic acid stimulated ^3 H-GABA-efflux from cultured cortical neurones; assay: Antagonism of quisqualic acid stimulated ^3 H-GABA efflux from cultured cortical neurones (release experiments); format: cell-based, mouse; details: Rattus norvegicus, Cortical neurone; concentration which reduces the rate of quisqualic acid stimulated ^3 H-GABA efflux by 50%; 37° C., pH 7.4

Row | IC50 [1] | EC50 [2] | Structure (SMILES)
1 | 0.61 µg/mL (≈ 2.07 µM) | > 4 µg/mL | O=c1[nH]c2c3ccccc3ccc2n(C2CCCCC2)c1=O [Compound 27k, 4-Cyclohexylbenzo[f]quinoxaline-2,3(1H,4H)-dione]
2 | 0.42 µg/mL (≈ 1.86 µM) | 2.1 µg/mL (≈ 9.28 µM) | Cn1c(=O)c(=O)[nH]c2c3ccccc3ccc21 [Compound 13, 4-Methylbenzo[f]quinoxaline-2,3(1H,4H)-dione]
3 | 0.69 µg/mL (≈ 2.13 µM) |  | O=c1[nH]c2cc([N+](=O)[O-])c(Cl)cc2n(C2CCCCC2)c1=O [Compound 16, 1-Cyclohexyl-6-nitro-7-chlorquinoxaline-2,3(1H,4H)-dione]
4 | 0.96 µg/mL (≈ 4.34 µM) | 2.1 µg/mL (≈ 9.49 µM) | Cn1c(=O)c(=O)[nH]c2cc([N+](=O)[O-])ccc21 [Compound 7, 1-Methyl-6-nitroquinoxaline-2,3(1H,4H)-dione]
